Measurements from patent US10597388B2, “Pyridazinone herbicides” (FMC CORPORATION, priority 2014, dated 2020).

Tests used:
Assay in all cases: Test E greenhouse herbicide test, pre- and postemergence
Assay type in all cases: in vivo
[1] = tested on: velvetleaf (Abutilon theophrasti); details: Preemergence
In short: (§1)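 Pre- and postemergence sprays, same solvent–surfactant formulation. Substrate: silt loam (pre), peat-based mix (post, 1–4 leaf, 2–18 cm). Readout: visual control rating 0–100 against controls at 14–21 d.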

[2] = tested on: pigweed, palmer (palmer pigweed, Amaranthus palmeri)
In short: as §1

[3] = tested on: johnsongrass (Sorghum halepense); details: Preemergence
In short: as §1

[4] = tested on: arrowleaf sida (Sida rhombifolia)
In short: as §1

[5] = tested on: momingglory (Ipomoea coccinea); details: Preemergence
In short: as §1

[6] = tested on: horseweed (Conyza canadensis)
In short: as §1

[7] = tested on: field bindweed (Convolvulus arvensis)
In short: as §1

[8] = tested on: goosegrass (Eleusine indica); details: Preemergence
In short: as §1

[9] = tested on: foxtail, giant (giant foxtail, Setaria faberii); details: Preemergence
In short: as §1

[10] = tested on: corn (Zea mays)
In short: as §1

[11] = tested on: nightshade (eastern black nightshade, Solanum ptycanthum); details: Preemergence
In short: as §1

[12] = tested on: waterhemp (common waterhemp, Amaranthus rudis)
In short: as §1

[13] = tested on: crabgrass, large (large crabgrass, Digitaria sanguinalis); details: Preemergence
In short: as §1

[14] = tested on: ragweed (common ragweed, Ambrosia elatior)
In short: as §1

[15] = tested on: surinam grass (Brachiaria decumbens); details: Preemergence
In short: as §1

[16] = tested on: crabgrass, Brazilian (Brazilian crabgrass, Digitaria horizontalis)
In short: as §1

[17] = tested on: dayflower (Virginia (VA) dayflower, Commelina virginica)
In short: as §1

[18] = 62 g ai/ha, scale 0 to 100 (0 no effect, 100 complete control)
[19] = 125 g ai/ha, scale 0 to 100 (0 no effect, 100 complete control)
[20] = 31 g ai/ha, scale 0 to 100, 0 no effect, 100 complete control
[21] = 250 g ai/ha, visual, scale 0 no effect to 100 complete control
[22] = 62 g ai/ha, Postemergence, scale 0 to 100 (0 no effect, 100 complete control)
[23] = 62 g ai/ha, Preemergence, scale 0 to 100 (0 no effect, 100 complete control)
[24] = 125 g ai/ha, Postemergence, scale 0 to 100 (0 no effect, 100 complete control)
[25] = 125 g ai/ha, Preemergence, scale 0 to 100 (0 no effect, 100 complete control)
[26] = 250 g ai/ha, Postemergence, scale 0 to 100 (0 no effect, 100 complete control)
[27] = Postemergence, 31 g ai/ha, visual, scale 0 no effect to 100 complete control
[28] = Preemergence, 31 g ai/ha, scale 0 to 100, 0 no effect, 100 complete control
[29] = Preemergence, 250 g ai/ha, visual, scale 0 no effect to 100 complete control

CCOC(=O)Oc1c(C)nn(C)c(=O)c1-c1c(C)sc2ccc(C)cc12 [Compound 82]
40: Plant response rating, Dayflower, VA [17, 27]
80: Plant response rating, Arrowleaf Sida [4, 24] | Plant response rating, Morningglory [5, 18] | Plant response rating, Horseweed [6, 26] | Plant response rating, Field Bindweed [7, 22] | Plant response rating, Crabgrass, Large [13, 19] | Plant response rating, Ragweed [14, 23]
0: Plant response rating, Velvetleaf [1, 20] | Plant response rating, Johnsongrass [3, 20] | Plant response rating, Corn [10, 22] | Plant response rating, Corn [10, 23] | Plant response rating, Corn [10, 24] | Plant response rating, Corn [10, 25] | Plant response rating, Corn [10, 26] | Plant response rating, Corn [10, 27] | Plant response rating, Corn [10, 28] | Plant response rating, Dayflower, VA [17, 28]
95: Plant response rating, Velvetleaf [1, 19] | Plant response rating, Arrowleaf Sida [4, 29] | Plant response rating, Field Bindweed [7, 24] | Plant response rating, Field Bindweed [7, 29] | Plant response rating, Foxtail, Giant [9, 21]
85: Plant response rating, Arrowleaf Sida [4, 25] | Plant response rating, Field Bindweed [7, 26] | Plant response rating, Field Bindweed [7, 27] | Plant response rating, Waterhemp [12, 24] | Plant response rating, Waterhemp [12, 28] | Plant response rating, Ragweed [14, 27] | Plant response rating, Ragweed [14, 28] | Plant response rating, Surinam Grass [15, 19]
50: Plant response rating, Pigweed, Palmer [2, 27] | Plant response rating, Johnsongrass [3, 21] | Plant response rating, Field Bindweed [7, 23] | Plant response rating, Foxtail, Giant [9, 19] | Plant response rating, Crabgrass, Brazil [16, 24] | Plant response rating, Crabgrass, Brazil [16, 26] | Plant response rating, Dayflower, VA [17, 22]
70: Plant response rating, Arrowleaf Sida [4, 22] | Plant response rating, Arrowleaf Sida [4, 23] | Plant response rating, Morningglory [5, 20] | Plant response rating, Horseweed [6, 22] | Plant response rating, Goosegrass [8, 19] | Plant response rating, Waterhemp [12, 27] | Plant response rating, Crabgrass, Large [13, 18]
20: Plant response rating, Arrowleaf Sida [4, 28] | Plant response rating, Goosegrass [8, 20] | Plant response rating, Crabgrass, Brazil [16, 27]
90: Plant response rating, Pigweed, Palmer [2, 23] | Plant response rating, Pigweed, Palmer [2, 28] | Plant response rating, Arrowleaf Sida [4, 26] | Plant response rating, Morningglory [5, 19] | Plant response rating, Horseweed [6, 28] | Plant response rating, Goosegrass [8, 21] | Plant response rating, Nightshade [11, 20] | Plant response rating, Waterhemp [12, 23] | Plant response rating, Waterhemp [12, 26] | Plant response rating, Crabgrass, Large [13, 21] | Plant response rating, Ragweed [14, 22] | Plant response rating, Ragweed [14, 24] | Plant response rating, Ragweed [14, 26] | Plant response rating, Surinam Grass [15, 21]
25: Plant response rating, Goosegrass [8, 18]
75: Plant response rating, Velvetleaf [1, 18] | Plant response rating, Pigweed, Palmer [2, 24] | Plant response rating, Horseweed [6, 24] | Plant response rating, Crabgrass, Brazil [16, 28]
60: Plant response rating, Pigweed, Palmer [2, 22] | Plant response rating, Horseweed [6, 27] | Plant response rating, Dayflower, VA [17, 24]
100: Plant response rating, Pigweed, Palmer [2, 25] | Plant response rating, Pigweed, Palmer [2, 29] | Plant response rating, Morningglory [5, 21] | Plant response rating, Horseweed [6, 23] | Plant response rating, Horseweed [6, 25] | Plant response rating, Horseweed [6, 29] | Plant response rating, Field Bindweed [7, 25] | Plant response rating, Nightshade [11, 21] | Plant response rating, Waterhemp [12, 25] | Plant response rating, Waterhemp [12, 29] | Plant response rating, Ragweed [14, 25] | Plant response rating, Ragweed [14, 29] | Plant response rating, Crabgrass, Brazil [16, 23] | Plant response rating, Crabgrass, Brazil [16, 25] | Plant response rating, Crabgrass, Brazil [16, 29]
65: Plant response rating, Pigweed, Palmer [2, 26] | Plant response rating, Arrowleaf Sida [4, 27] | Plant response rating, Field Bindweed [7, 28] | Plant response rating, Foxtail, Giant [9, 18] | Plant response rating, Surinam Grass [15, 18] | Plant response rating, Dayflower, VA [17, 26]
98: Plant response rating, Velvetleaf [1, 21] | Plant response rating, Nightshade [11, 18] | Plant response rating, Nightshade [11, 19]
35: Plant response rating, Johnsongrass [3, 19] | Plant response rating, Surinam Grass [15, 20] | Plant response rating, Dayflower, VA [17, 29]
30: Plant response rating, Foxtail, Giant [9, 20] | Plant response rating, Crabgrass, Brazil [16, 22]
5: Plant response rating, Corn [10, 29] | Plant response rating, Dayflower, VA [17, 23] | Plant response rating, Dayflower, VA [17, 25]
